*1 amine or outer side, *2 acyl side, *3 side chain or, on linkers, in order; H or OH if unused. Where a SMILES comes first, the peptide text is derived from it. Bridges are numbered along the chain shown (N, C = ends). [ ]: non-standard residue; d: D form. The star is where a group is joined. ξ: configuration not given here. hPhe(3-OMe,4-CONHMe) = CNC(=O)c1ccc(CC[C@H](N)C(=O)O)cc1OC; Phe(3-OMe,4-CONHMe) = CNC(=O)c1ccc(C[C@H](N)C(=O)O)cc1OC; X5 = O=C([C@H](CCC[C@@H]1CC(F)(F)CN1)N[*:1])[*:2]; CH2(1,2,4-oxadiazolon-3-yl) = O=c1[nH]c(C*)no1; Pro(4,4-F2)ψ(CH2) = FC1(F)CN[C@H](C*)C1; Hyp = O=C(O)[C@@H]1C[C@@H](O)CN1; NMeF = CN[C@@H](Cc1ccccc1)C(=O)O; NMeGABA = CN(CCCC(=O)[*:2])[*:1]; NMeI = CC[C@H](C)[C@H](NC)C(=O)O; NMeL = CN[C@@H](CC(C)C)C(=O)O; dNMeL = CN[C@H](CC(C)C)C(=O)O; Butyl(3S-OH) = C[C@H](O)CC*; NMeV = CN[C@H](C(=O)O)C(C)C; ξIle = CC[C@H](C)C(N)C(=O)O; NMeAbu = CC[C@H](NC)C(=O)O; Pip = O=C(O)[C@@H]1CCCCN1; NMeA = CN[C@@H](C)C(=O)O; Piperidide = C1CCN(*)CC1; dNMeA = CN[C@H](C)C(=O)O; NBuGly = CCCCNCC(=O)O; Ethyl(2-OH) = OCC*; ξS = NC(CO)C(=O)O; Sar = CNCC(=O)O; tBu = CC(C)(C)*

The values that follow come from patent publication US20230096766A1, “AMINO ACID HAVING FUNCTIONAL GROUP CAPABLE OF INTERMOLECULAR HYDROGEN BONDING, PEPTIDE COMPOUND CONTAINING SAME AND METHOD FOR PRODUCTION THEREOF” (Chugai Seiyaku Kabushiki Kaisha, priority 2018, published 2023).

The nature of the first series: Membrane permeability test of cyclic peptides (Caco-2, modified/improved method of WO 2018/124162). Particulars: human, Caco-2, Caco-2 (cm/sec), Table 36; Papp; sequences having Papp ≥ 1.0 × 10^−6 at ARC = 3.
Regarding `CC[C@H](C)[C@@H]1NC(=O)[C@H](CC(C)C)N(C)C(=O)[C@H](C)N(C)C(=O)[C@H]([C@@H](C)O)NC(=O)[C@H](Cc2ccccc2)N(C)C(=O)[C@H](C)N(C)C(=O)[C@@H](C)N(C)C(=O)C[C@@H](C(=O)N(C)[C@@H](Cc2ccccc2)C(=O)N(C)[C@@H](Cc2ccccc2)C(=O)N[C@@H](C)C(=O)N2CCCCC2)NC(=O)[C@H](C(C)C)N(C)C(=O)[C@H](CC(C)C)N(C)C1=O` [pd201] ([dNMeA][NMeA][NMeF]T[NMeA][NMeL]I[NMeL][NMeV]D[NMeF][NMeF]A-Piperidide; lactam N-10), the Papp was determined as 23 nm/s. In the case of `CC[C@H](C)[C@@H]1NC(=O)[C@@H](C)N(C)C(=O)C[C@@H](C(=O)N(C)[C@@H](Cc2ccccc2)C(=O)N[C@@H](C)C(=O)N2CCCCC2)NC(=O)[C@H](Cc2ccccc2)N(C)C(=O)CN(C)C(=O)[C@H]([C@@H](C)O)NC(=O)[C@H](C)N(C)C(=O)[C@H](C(C)C)N(C)C(=O)[C@H](Cc2ccccc2)NC(=O)[C@H](CC(C)C)N(C)C(=O)[C@H](CC(C)C)N(C)C1=O` [pd222] ([dNMeA]I[NMeL][NMeL]F[NMeV][NMeA]T[Sar][NMeF]D[NMeF]A-Piperidide; lactam N-11), the Papp worked out at 11 nm/s.

Staying with this series, now noted: human, Caco-2, Caco-2 (cm/sec), membrane permeability of cyclic peptides, Caco-2.
For `CCCCN1CC(=O)N(C)[C@@H](CC(C)C)C(=O)N[C@H](C(=O)N2CCCCC2)CC(=O)N(C)[C@@H](C(C)C)C(=O)N[C@@H](CC(C)C)C(=O)N(C)[C@@H](CC(C)C)C(=O)N(C)[C@@H](Cc2ccccc2)C(=O)N[C@@H](COCC[C@H](C)O)C(=O)N(C)[C@@H](Cc2ccccc2)C(=O)N(C)[C@@H](C(C)C)C(=O)N[C@@H]([C@@H](C)O)C1=O` [AP107] ([NMeV]L[NMeL][NMeF]S(Butyl(3S-OH))[NMeF][NMeV]T[NBuGly][NMeL]D-Piperidide; lactam N-11), the Papp was found to be 9.3 nm/s. Molecule `CC(C)C[C@@H]1NC(=O)[C@@H]2CCCCN2C(=O)[C@H](Cc2ccccc2)NC(=O)[C@H](C(C)C)N(C)C(=O)[C@H](CC(C)C)N(C)C(=O)[C@H]([C@@H](C)O)NC(=O)[C@H](CC(C)C)N(C)C(=O)[C@@H]2C[C@@H](OCCO)CN2C(=O)[C@H](CC(C)C)N(C)C(=O)[C@@H](CC(C)C)N(C)C(=O)C[C@@H](C(=O)N2CCCCC2)NC1=O` [AP236] ([dNMeL][NMeL][Hyp](Ethyl(2-OH))[NMeL]T[NMeL][NMeV]F[Pip]LD-Piperidide; lactam N-11) yielded a Papp of 38 nm/s. `CCCCN1CC(=O)N(C)[C@@H](CC(C)C)C(=O)N[C@@H](COC(C)(C)C)C(=O)N(C)[C@@H](CC(C)C)C(=O)N(C)[C@@H](CC(C)C)C(=O)N[C@H](C(=O)N2CCCCC2)CC(=O)N[C@H](CC(C)C)C(=O)N(C)[C@@H](Cc2ccccc2)C(=O)NC(COCc2noc(=O)[nH]2)C(=O)N(C)[C@@H](CC(C)C)C(=O)N[C@@H]([C@@H](C)O)C1=O` (stereo partly drawn) [AP45] ([dL][NMeF][ξS](CH2(1,2,4-oxadiazolon-3-yl))[NMeL]T[NBuGly][NMeL]S(tBu)[NMeL][NMeL]D-Piperidide; lactam N-11) came in with a Papp of 14 nm/s. On to `CC[C@H](C)[C@H]1C(=O)N[C@@H]([C@@H](C)O)C(=O)N(C)CC(=O)N(C)[C@@H](CC)C(=O)N[C@H](C(=O)N2CCCCC2)CC(=O)N(C)[C@@H](CC(C)C)C(=O)N[C@@H](Cc2ccc(C(=O)NC)c(OC)c2)C(=O)N(C)[C@@H](CC(C)C)C(=O)N(C)[C@@H](Cc2ccccc2)C(=O)N[C@@H](CC(C)C)C(=O)N(C)[C@@H](CC(C)C)C(=O)N1C` [AP31] ([NMeL][Phe(3-OMe,4-CONHMe)][NMeL][NMeF]L[NMeL][NMeI]T[Sar][NMeAbu]D-Piperidide; lactam N-11), for which the Papp amounted to 5.2 nm/s.

Still in this series, the particulars now being: human, Caco-2, Caco-2 (cm/sec), membrane permeability, Caco-2.
`CC[C@H](C)[C@H]1C(=O)N[C@@H](CCc2ccc(C(=O)NC)c(OC)c2)C(=O)N[C@H](C(=O)N2CCCCC2)CC(=O)N(C)[C@H](CC(C)C)C(=O)N[C@@H](COC(C)(C)C)C(=O)N(C)[C@@H](CC(C)C)C(=O)N[C@@H]([C@@H](C)O)C(=O)N(C)[C@@H](Cc2ccccc2)C(=O)N(C)[C@@H](CC(C)C)C(=O)NCC(=O)N1C` [AP264] ([dNMeL]S(tBu)[NMeL]T[NMeF][NMeL]G[NMeI][hPhe(3-OMe,4-CONHMe)]D-Piperidide; lactam N-10): the Papp turned out to be 1.7 nm/s.

The same series, now with this note: human, Caco-2, Caco-2 (membrane permeability), Table 10, cyclic peptides containing Ser(S-4-F2-Pyrro-Me) (G) or Nva(2-R-4-F2-Pyrro) (H).
In turn, `CC[C@H]1C(=O)N(C)[C@@H](Cc2ccccc2)C(=O)N[C@@H](CC(C)C)C(=O)N(C)[C@@H](CC(C)C)C(=O)N(C)[C@@H](CC(C)C)C(=O)N[C@@H](COC[C@@H]2CC(F)(F)CN2)C(=O)N(C)CC(=O)N(C)[C@@H](CC(C)C)C(=O)N[C@H](C(=O)N2CCCCC2)CC(=O)N(C)[C@@H](C)C(=O)N[C@@H](CC(C)C)C(=O)N1C` [Compound G10] ([NMeA]L[NMeAbu][NMeF]L[NMeL][NMeL]S(Pro(4,4-F2)ψ(CH2))[Sar][NMeL]D-Piperidide; lactam N-11) came in with a Papp of 11 nm/s. `CCCCN1CC(=O)N(C)[C@@H](CC(C)C)C(=O)N[C@H](C(=O)N2CCCCC2)CC(=O)N(C)[C@@H](CC)C(=O)N[C@@H](CC(C)C)C(=O)N(C)[C@@H](CC(C)C)C(=O)N(C)[C@@H](Cc2ccccc2)C(=O)N[C@@H](CCC[C@@H]2CC(F)(F)CN2)C(=O)N(C)[C@@H](C)C(=O)N(C)[C@@H](CC(C)C)C(=O)N[C@@H]([C@@H](C)O)C1=O` [Compound H04] ([NMeAbu]L[NMeL][NMeF][X5][NMeA][NMeL]T[NBuGly][NMeL]D-Piperidide; lactam N-11) showed a Papp of 9.3 nm/s. On to `CCCCN1CC(=O)N(C)[C@@H](Cc2ccccc2)C(=O)N(C)[C@@H](CC(C)C)C(=O)N[C@@H](COC[C@@H]2CC(F)(F)CN2)C(=O)N(C)[C@@H](CC(C)C)C(=O)N[C@H](C(=O)N2CCCCC2)CC(=O)N(C)CC(=O)N(C)[C@@H](CC(C)C)C(=O)NC([C@@H](C)CC)C(=O)N(C)[C@@H](CC(C)C)C(=O)N[C@@H]([C@@H](C)O)C1=O` (stereo partly drawn) [Compound G07] ([Sar][NMeL][ξIle][NMeL]T[NBuGly][NMeF][NMeL]S(Pro(4,4-F2)ψ(CH2))[NMeL]D-Piperidide; lactam N-11), for which the Papp worked out at 5.7 nm/s. As for `CCCCN1CC(=O)N(C)[C@@H](C)C(=O)N[C@@H](CCC[C@@H]2CC(F)(F)CN2)C(=O)N(C)[C@@H](Cc2ccccc2)C(=O)N(C)[C@@H](CC)C(=O)N[C@H](C(=O)N2CCCCC2)CC(=O)N[C@H](CC(C)C)C(=O)N(C)[C@@H](CC(C)C)C(=O)N[C@@H](C(C)C)C(=O)N(C)[C@@H](CC(C)C)C(=O)N[C@@H]([C@@H](C)O)C1=O` [Compound H02] ([dL][NMeL]V[NMeL]T[NBuGly][NMeA][X5][NMeF][NMeAbu]D-Piperidide; lactam N-11), the Papp worked out at 1.4 nm/s.

`CCCCN1CC(=O)N(C)[C@@H](Cc2ccccc2)C(=O)N(C)[C@@H](CC(C)C)C(=O)N[C@@H](CC(C)C)C(=O)N(C)[C@@H](CC(C)C)C(=O)N[C@H](C(=O)N2CCCCC2)CC(=O)N(C)CC(=O)N(C)[C@@H](C)C(=O)N[C@@H](C(C)C)C(=O)N(C)[C@@H](CC)C(=O)N[C@@H](CCC[C@@H]2CC(F)(F)CN2)C1=O` [Compound H11] ([Sar][NMeA]V[NMeAbu][X5][NBuGly][NMeF][NMeL]L[NMeL]D-Piperidide; lactam N-11) registered a Papp of 20 nm/s.

On to `CC[C@H]1C(=O)N[C@@H](COC(C)(C)C)C(=O)N(C)[C@@H](CC(C)C)C(=O)N[C@@H](COC[C@@H]2CC(F)(F)CN2)C(=O)N(C)[C@@H](CC(C)C)C(=O)N(C)[C@@H](CC(C)C)C(=O)N[C@H](C(=O)N2CCCCC2)CC(=O)N(C)CCCC(=O)N(C)[C@@H](CC(C)C)C(=O)N[C@@H](C(C)C)C(=O)N(C)[C@@H](Cc2ccccc2)C(=O)N1C` [Compound G09] ([NMeGABA][NMeL]V[NMeF][NMeAbu]S(tBu)[NMeL]S(Pro(4,4-F2)ψ(CH2))[NMeL][NMeL]D-Piperidide; lactam N-11), for which the Papp amounted to 12 nm/s.
